Laboratory results: US12414567B2, “Wear resistant antimicrobial compositions and methods of use” (ECOLAB USA INC., priority 2010, dated 2025)

Tested on: MatTek EpiOcular ocular tissues
Test: MatTek EpiOcular model ocular irritation (MTT cell viability, Example 16)
Format: cell-based
Details: positive control, 10%, all exposure times (5-60 minutes)
Description: Each of these compositions was diluted at a rate of 2 oz/gal before they were tested using the Epioccular model.
The MatTek EpiOcular™ model can be used to assess the potential ocular irritation of test articles by determining the cell viability of the tissue after exposure to the test articles. The objective of this study was to assess the ocular irritation potential of 1.56% (w/w) 12837.36.1. Control and test article exposure times were 5 minutes, 10 minutes, 20 minutes, 40 minutes and 60 minutes. After the exposures MTT was performed and data was normalized to the negative control, sterile ultrapure water (water purified and deionized˜18.2 MΩ-cm). The positive control, 10% benzalkonium chloride (BC), was effective, reducing cell viability to <10% of control for all exposure times (Tables 2a-e) and FIG. 1). The relative cell viability of ocular tissues treated with 1.56% (w/w) 12837.36.1 was 29.7%, 26.8%, 15.3%, 8.9% and 8.0% after 5, 10, 20, 40 and 60 minute exposures, respectively (Tables 2a-e and FIG. 1), resulting in an ET50 of 1.54 minutes and an estimated in vivo Draize score of 77.2 (Table 1).
The MatTek EipOcular™ model can be used to assess the potential ocular irritation of test articles by determining the cell viability of the tissue after exposure to the test articles. The objective of this study was to assess the ocular irritation potential of 1.56% (w/w) 12837.39.1. […]

## benzalkonium chloride
  cell viability: < 10 % of control
